Reference: PubChem BioAssay AID248 (DTP/NCI, 2004)
Values joined by “and” are separate entries in the source; they are usually repeats but may differ in a detail not shown here. Identical values can stand only once. Toxic doses and inconclusive results are not listed.

Tested on: L1210 leukemia ip in BDF1 mice, survival T/C
Assay: NCI In Vivo Anticancer Drug Screen. Data for tumor model L1210 Leukemia (intraperitoneal) in B6D2F1 (BDF1) mice
Settings: endpoint: mean survival time, higher = longer survival
Procedure, shortened: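 Tumor cells were implanted, animals were treated, and survival was followed. The result divides the treated measurement by the vehicle-control measurement.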

[1] = dose: 100.0 mg/kg/injection, schedule: Q04DX003 (ip), vehicle: saline with Tween-80
[2] = dose: 200.0 mg/kg/injection, schedule: Q04DX003 (ip), vehicle: saline with Tween-80
[3] = dose: 400.0 mg/kg/injection, schedule: Q04DX003 (ip), vehicle: saline with Tween-80
[4] = dose: 100.0 mg/kg/injection, schedule: Q04DX002 (ip), vehicle: Klucel (hydroxypropylcellulose) (HPC)
[5] = dose: 200.0 mg/kg/injection, schedule: Q04DX002 (ip), vehicle: Klucel (hydroxypropylcellulose) (HPC)
[6] = dose: 400.0 mg/kg/injection, schedule: Q04DX002 (ip), vehicle: Klucel (hydroxypropylcellulose) (HPC)
[7] = dose: 100.0 mg/kg/injection, schedule: Q01DX009 (ip), vehicle: saline
[8] = dose: 200.0 mg/kg/injection, schedule: Q01DX009 (ip), vehicle: saline
[9] = dose: 400.0 mg/kg/injection, schedule: Q01DX009 (ip), vehicle: saline
[10] = dose: 100.0 mg/kg/injection, schedule: Q01DX009 (ip), vehicle: saline with Tween-80
[11] = dose: 200.0 mg/kg/injection, schedule: Q01DX009 (ip), vehicle: saline with Tween-80
[12] = dose: 400.0 mg/kg/injection, schedule: Q01DX009 (ip), vehicle: saline with Tween-80
[13] = dose: 100.0 mg/kg/injection, schedule: Q01DX009 (ip), vehicle: Klucel (hydroxypropylcellulose) (HPC)
[14] = dose: 200.0 mg/kg/injection, schedule: Q01DX009 (ip), vehicle: Klucel (hydroxypropylcellulose) (HPC)
[15] = dose: 400.0 mg/kg/injection, schedule: Q01DX009 (ip), vehicle: Klucel (hydroxypropylcellulose) (HPC)
[16] = dose: 100.0 mg/kg/injection, schedule: Q04DX002 (ip), vehicle: saline with Tween-80
[17] = dose: 200.0 mg/kg/injection, schedule: Q04DX002 (ip), vehicle: saline with Tween-80
[18] = dose: 400.0 mg/kg/injection, schedule: Q04DX002 (ip), vehicle: saline with Tween-80

## BrC(Br)(Br)c1ccc2ccccc2n1
dose: 50.0 mg/kg/injection, schedule: Q01DX001 (ip), vehicle: other
  T/C: 109 % of control
dose: 100.0 mg/kg/injection, schedule: Q01DX001 (ip), vehicle: other
  T/C: 103 % of control
[1]
  T/C: 93 % of control
dose: 200.0 mg/kg/injection, schedule: Q01DX001 (ip), vehicle: other
  T/C: 101 % of control
[2]
  T/C: 93 % of control
dose: 400.0 mg/kg/injection, schedule: Q01DX001 (ip), vehicle: other
  T/C: 97 % of control
[3]
  T/C: 95 % of control

## COc1cc(/C=C(\C(=O)O)c2cccc3ccccc23)cc(OC)c1OC
dose: 100.0 mg/kg/injection, schedule: Q04DX003 (ip), vehicle: Klucel (hydroxypropylcellulose) (HPC)
  T/C: 97 % of control
dose: 200.0 mg/kg/injection, schedule: Q04DX003 (ip), vehicle: Klucel (hydroxypropylcellulose) (HPC)
  T/C: 107 % of control
dose: 400.0 mg/kg/injection, schedule: Q04DX003 (ip), vehicle: Klucel (hydroxypropylcellulose) (HPC)
  T/C: 102 % of control

## N#Cc1ccccc1C(Cl)(Cl)Cl
[4]
  T/C: 100 % of control
[5]
  T/C: 106 % of control
[6]
  T/C: 100 % of control

## O=C(O)c1sc(C(=O)O)c(O)c1O
dose: 12.5 mg/kg/injection, schedule: Q01DX001 (ip), vehicle: saline with Tween-80
  T/C: 111 % of control
dose: 25.0 mg/kg/injection, schedule: Q01DX001 (ip), vehicle: saline with Tween-80
  T/C: 103 % of control
dose: 50.0 mg/kg/injection, schedule: Q01DX001 (ip), vehicle: saline with Tween-80
  T/C: 100 % of control

## CC(C)NP(=O)(NC(C)C)OC1CC(C)(C)N(O)C(C)(C)C1
dose: 6.25 mg/kg/injection, schedule: Q01DX001 (ip), vehicle: water
  T/C: 92 % of control
dose: 12.5 mg/kg/injection, schedule: Q01DX001 (ip), vehicle: water
  T/C: 96 % of control
dose: 25.0 mg/kg/injection, schedule: Q01DX001 (ip), vehicle: water
  T/C: 99 % of control
dose: 50.0 mg/kg/injection, schedule: Q01DX001 (ip), vehicle: water
  T/C: 94 % of control

## CCN(CC)CCOc1ccc(C=Nc2ccc(I)cc2)cc1
dose: 100.0 mg/kg/injection, schedule: Q04DX003 (ip), vehicle: other
  T/C: 97 % of control
dose: 200.0 mg/kg/injection, schedule: Q04DX003 (ip), vehicle: other
  T/C: 98 % of control
dose: 400.0 mg/kg/injection, schedule: Q04DX003 (ip), vehicle: other
  T/C: 95 % of control

## COc1ccc(NC(=O)c2ccc(Cl)cc2Cl)c(OC)c1
[4]
  T/C: 102 % of control
[5]
  T/C: 97 % of control
[6]
  T/C: 102 % of control

## O=C(O)c1nnc(C(=O)O)nn1
dose: 50.0 mg/kg/injection, schedule: Q01DX009 (ip), vehicle: saline
  T/C: 96 % of control
[7]
  T/C: 102 % of control and 104 % of control
dose: 100.0 mg/kg/injection, schedule: Q04DX003 (ip), vehicle: saline
  T/C: 100 % of control
[8]
  T/C: 100 % of control and 101 % of control
dose: 200.0 mg/kg/injection, schedule: Q04DX003 (ip), vehicle: saline
  T/C: 103 % of control
[9]
  T/C: 96 % of control
dose: 400.0 mg/kg/injection, schedule: Q04DX003 (ip), vehicle: saline
  T/C: 94 % of control

## O=S(=O)(NO)c1ccccc1
[10]
  T/C: 98 % of control
[1]
  T/C: 98 % of control
[11]
  T/C: 96 % of control
[2]
  T/C: 100 % of control
[12]
  T/C: 98 % of control
[3]
  T/C: 98 % of control

## Cc1cc(C)c2c(=O)[nH]c(=S)[nH]c2n1
dose: 50.0 mg/kg/injection, schedule: Q01DX001 (ip), vehicle: saline
  T/C: 102 % of control
dose: 100.0 mg/kg/injection, schedule: Q01DX001 (ip), vehicle: saline
  T/C: 108 % of control
[13]
  T/C: 95 % of control
dose: 200.0 mg/kg/injection, schedule: Q01DX001 (ip), vehicle: saline
  T/C: 102 % of control
[14]
  T/C: 91 % of control
dose: 400.0 mg/kg/injection, schedule: Q01DX001 (ip), vehicle: saline
  T/C: 98 % of control
[15]
  T/C: 98 % of control

## O=C(Nc1ccccc1F)C(Cl)(Cl)Cl
[4]
  T/C: 104 % of control
[5]
  T/C: 104 % of control

## Clc1sc2ccccc2c1Cl
dose: 50.0 mg/kg/injection, schedule: Q01DX009 (ip), vehicle: Klucel (hydroxypropylcellulose) (HPC)
  T/C: 103 % of control
[13]
  T/C: 95 % of control

## O=C(Nc1ccc(C(=O)O)cc1)Nc1ccccc1C(F)(F)F
dose: 100.0 mg/kg/injection, schedule: Q01DX009 (ip), vehicle: gum acacia
  T/C: 100 % of control
dose: 200.0 mg/kg/injection, schedule: Q01DX009 (ip), vehicle: gum acacia
  T/C: 102 % of control
dose: 400.0 mg/kg/injection, schedule: Q01DX009 (ip), vehicle: gum acacia
  T/C: 96 % of control

## [O-][n+]1ccc(CCc2ccccc2)cc1
[16]
  T/C: 101 % of control
[17]
  T/C: 101 % of control

## NC(Cc1cc([N+](=O)[O-])ccc1CN(CCCl)CCCl)C(=O)O (stereo not drawn)
dose: 3.6 mg/kg/injection, schedule: Q04DX003 (ip), vehicle: saline
  T/C: 161 % of control
dose: 6.0 mg/kg/injection, schedule: Q01DX001 (ip), vehicle: saline
  T/C: 198 % of control
dose: 6.0 mg/kg/injection, schedule: Q04DX003 (ip), vehicle: saline
  T/C: 158 % of control and 315 % of control
dose: 10.0 mg/kg/injection, schedule: Q01DX001 (ip), vehicle: saline
  T/C: 173 % of control and 248 % of control
dose: 10.0 mg/kg/injection, schedule: Q04DX003 (ip), vehicle: saline
  T/C: 163 % of control and 352 % of control
dose: 16.7 mg/kg/injection, schedule: Q01DX001 (ip), vehicle: saline
  T/C: 302 % of control and 309 % of control
dose: 16.7 mg/kg/injection, schedule: Q04DX003 (ip), vehicle: saline
  T/C: 151 % of control

## Cc1ccc(SP(=O)(Sc2ccc(C)cc2)Sc2ccc(C)cc2)cc1
[16]
  T/C: 97 % of control
[17]
  T/C: 97 % of control
[18]
  T/C: 97 % of control

## CN(C)/N=C/c1ccc(-c2ccccc2)cc1
[10]
  T/C: 95 % of control
[11]
  T/C: 111 % of control
[12]
  T/C: 102 % of control

## COc1ccc(C)cc1NC(=O)c1ccc(Cl)cc1Cl
[13]
  T/C: 98 % of control
[14]
  T/C: 101 % of control
[15]
  T/C: 97 % of control

## O=C(Nc1cc(C(F)(F)F)cc(C(F)(F)F)c1)Nc1c(Oc2ccc(Cl)cc2Cl)ccc(Cl)c1S(=O)(=O)O
dose: 100.0 mg/kg/injection, schedule: Q04DX003 (ip), vehicle: saline sonified
  T/C: 100 % of control
dose: 200.0 mg/kg/injection, schedule: Q04DX003 (ip), vehicle: saline sonified
  T/C: 100 % of control

## CN(C)Cc1c(C(O)(c2ccccc2)c2ccccc2)ccc2ccccc12
dose: 50.0 mg/kg/injection, schedule: Q01DX001 (ip), vehicle: carboxymethylcellulose (CMC)
  T/C: 90 % of control
dose: 100.0 mg/kg/injection, schedule: Q01DX001 (ip), vehicle: carboxymethylcellulose (CMC)
  T/C: 100 % of control
dose: 200.0 mg/kg/injection, schedule: Q01DX001 (ip), vehicle: carboxymethylcellulose (CMC)
  T/C: 96 % of control
dose: 400.0 mg/kg/injection, schedule: Q01DX001 (ip), vehicle: carboxymethylcellulose (CMC)
  T/C: 90 % of control

## O=C(O)c1ccc([N+](=O)[O-])c(P(=O)(O)O)c1
dose: 75.0 mg/kg/injection, schedule: Q01DX001 (ip), vehicle: saline
  T/C: 96 % of control
dose: 150.0 mg/kg/injection, schedule: Q01DX001 (ip), vehicle: saline
  T/C: 109 % of control

## CCCCCCCCCCCCCCCCCCOC(=O)C(C(C)=O)C(c1cccc([N+](=O)[O-])c1)C(C(C)=O)C(=O)O (stereo not drawn)
dose: 25.6 mg/kg/injection, schedule: Q04DX002 (ip), vehicle: saline with Tween-80
  T/C: 87 % of control
dose: 64.0 mg/kg/injection, schedule: Q04DX002 (ip), vehicle: saline with Tween-80
  T/C: 95 % of control
[1]
  T/C: 90 % of control
dose: 160.0 mg/kg/injection, schedule: Q04DX002 (ip), vehicle: saline with Tween-80
  T/C: 95 % of control
[18]
  T/C: 91 % of control
[3]
  T/C: 92 % of control

## NC(=O)CCSCCC(N)=O
[7]
  T/C: 114 % of control
[8]
  T/C: 118 % of control
[9]
  T/C: 111 % of control
